Data taken from paper PMC10590419, “Structural and mechanistic insights into the inhibition of respiratory syncytial virus polymerase by a non-nucleoside inhibitor” (Communications Biology, 2023).
Several values for one entry are separate records, joined by “and”; a condition that tells them apart may be missing. Equal values may be shown once. Read-outs that look alike come from different tables or passages of the source.

Experiments:
[1] = tested on: RSV A2 replicon in APC-126 cells; test: RSV subgenomic replicon (minireplicon) assay, luciferase; assay type: cell-based; conditions: human respiratory syncytial virus, APC-126, 72 h, read-out: Median EC50
Protocol: (§1) The RSV subgenomic replicon system was licensed from Apath (Apath, NY, USA)[49],[50]. The BHK-derived cell line (APC-126) containing the stable RSV A2 replicon was cultured in DMEM/Hams F-12 medium supplemented with 10% (v/v) FBS (Gibco), 1% (v/v) penicillin (10,000 units/mL) and streptomycin (10,000 µg/mL) solution (Gibco), 1% (v/v) MEM non-essential amino acids solution (Gibco), 5% (v/v) Tryptose Phosphate Broth solution (29.5 g/l) (Sigma-Aldrich) and 10 µg/ml of blasticidin solution (Invivogen). Cells were maintained at 37 °C in a humidified 5% CO2 atmosphere. 5000 cells were plated in 96-well clear plates (Corning) in 100 µl/well of medium. […] Cell viability (CC50 and CC90) was measured with a CellTiter-Glo cell proliferation assay (Promega, 100 µl/well of reagent). Results were expressed as EC50 and EC90 values as well as CC50 and CC90 values.

RSV L+P complex [2] = biological target: T1, RSV L+P complex (Human respiratory syncytial virus A, UniProt P28887); test: Thermal shift assay (Prometheus NT.48); assay type: binding, Human RSV (strain A2); conditions: read-out: increase in melting temperature (Tm)
RSV MTase-CTD protein = RSV MTase-CTD protein (Human respiratory syncytial virus A, UniProt P28887); test: Methyltransferase filter-binding assay; assay type: biochemical; conditions: for MTase activity, RNA+compound+RSV MTase-CTD, CPM: three technical replicates
[3] = tested on: RSV minigenome transcription and RNA replication; test: RSV minigenome assay in BSR-T7 cells; assay type: cell-based, respiratory syncytial virus
Protocol: RSV transcription and RNA replication were analyzed using a replication-deficient minigenome, in which the minigenome template contained a single nucleotide substitution in the trailer region, limiting it to the antigenome step of RNA replication and uncoupling transcription from replication. Minigenome transcription and replication were reconstituted intracellularly. BSR-T7 cells, a T7 RNA polymerase expressing cell line, were cultured in a 6-well dish and transfected with T7-driven plasmids that expressed the minigenome template (200 ng/ well), and the RSV proteins N (400 ng/ well), P (200 ng/ well), L (100 ng/ well) and M2-1 (100 ng/ well). Transfections were performed using Lipofectamine (Thermofisher) according to the manufacturer’s directions. […] Input minigenome RNA, antigenome RNA, and mRNAs were detected by subjecting RNA to electrophoresis in 1.5% agarose-formaldehyde gels in MOPS buffer, followed by Northern blotting using ^32P labeled riboprobes specific to negative sense minigenome (to detect the input RNA) and to positive sense antigenome and mRNAs. The same RNA samples were also analyzed by primer extension using ^32P end-labeled primers corresponding in sequence to nucleotides 15–39 of the leader region (to detect RNA initiated from the +1U and +3 C sites on the promoter). […] Quantification was performed by phosphorimage analysis. […]

[4] = tested on: rVSV (Indiana strain-derived, luciferase reporter); test: microbe, parasite or virus in culture; assay type: cell-based, vesicular stomatitis virus
[5] = tested on: PIV-3 (recombinant JS-derived strain encoding GFP); assay type: cell-based, parainfluenza virus type 3
Human RNA polymerase II = Human RNA polymerase II (Homo sapiens, UniProt P24928+P30876); test: RNA polymerase II DdRp activity (HeLa nuclear extract); assay type: biochemical; conditions: RNA Pol II
in vitro = conditions: human
RSV L+P complex [6] = biological target: T1, RSV L+P complex; assay type: biochemical; conditions: for MTase activity, RNA+compound+RSV L+P, CPM: three technical replicates
[7] = Cell viability of replicon cell line (CellTiter-Glo); assay type: cell-based; conditions: hamster, APC-126 cells (BHK-derived, stable RSV A2 replicon); APC-126, CellTiter-Glo
Protocol: as §1

[8] = tested on: RSV A clinical isolates and laboratory strains; test: Inhibition of RSV-A clinical isolates and laboratory strains, RT-qPCR, HeLa; assay type: cell-based; conditions: human respiratory syncytial virus, 10 strains, read-out: Median EC50
Protocol: Then, 100 µL of a HeLa cell suspension (5 × 10^4 cells/mL) in culture medium was added to each well. […] After 3 days of incubation, the supernatant was removed from wells. Plates were washed twice with ice-cold PBS (100 µL/well), and were then sealed and stored overnight at −80 °C. Next, 50 µL of lysis solution supplemented with DNAse was added to the plates and incubated for 5 min followed by the addition of 5 µL stop solution (Ambion Cell-to-CT bulk lysis reagent buffer). […] Roche) for cDNA synthesis. Reverse transcription was performed at 42 °C for 30 min, followed by denaturation at 95 °C for 5 min. […] The reaction consisted of a denaturation step (95 °C for 600 s), 45 cycles of denaturation (95 °C for 15 s) and annealing/elongation (60 °C for 60 s), and a step of cooling (40 °C for 10 s).

[9] = tested on: PIV-1 (recombinant Washington/20993/1964-derived strain encoding GFP); assay type: cell-based, parainfluenza virus type 1

Chain of RSV MTase-CTD protein (P28887 1755-2165): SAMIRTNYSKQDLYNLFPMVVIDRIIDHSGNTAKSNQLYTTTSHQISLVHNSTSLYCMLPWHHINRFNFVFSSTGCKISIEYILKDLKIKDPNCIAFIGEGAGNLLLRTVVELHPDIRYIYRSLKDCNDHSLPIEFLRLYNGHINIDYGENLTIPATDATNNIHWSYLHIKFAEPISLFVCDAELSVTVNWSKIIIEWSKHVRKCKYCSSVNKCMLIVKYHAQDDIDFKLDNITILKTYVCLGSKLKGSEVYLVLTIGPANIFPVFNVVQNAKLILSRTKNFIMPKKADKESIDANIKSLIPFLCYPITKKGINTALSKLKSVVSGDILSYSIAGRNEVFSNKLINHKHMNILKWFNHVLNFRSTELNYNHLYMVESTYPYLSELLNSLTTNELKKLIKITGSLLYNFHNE
T1 sequence (P03421 whole entry): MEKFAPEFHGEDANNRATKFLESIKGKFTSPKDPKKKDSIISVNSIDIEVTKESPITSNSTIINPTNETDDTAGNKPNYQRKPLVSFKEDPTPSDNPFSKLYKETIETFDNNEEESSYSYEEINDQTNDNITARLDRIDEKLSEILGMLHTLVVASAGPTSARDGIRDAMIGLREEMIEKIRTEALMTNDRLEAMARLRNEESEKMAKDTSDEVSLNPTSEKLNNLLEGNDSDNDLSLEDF
T1 sequence (P28887 whole entry): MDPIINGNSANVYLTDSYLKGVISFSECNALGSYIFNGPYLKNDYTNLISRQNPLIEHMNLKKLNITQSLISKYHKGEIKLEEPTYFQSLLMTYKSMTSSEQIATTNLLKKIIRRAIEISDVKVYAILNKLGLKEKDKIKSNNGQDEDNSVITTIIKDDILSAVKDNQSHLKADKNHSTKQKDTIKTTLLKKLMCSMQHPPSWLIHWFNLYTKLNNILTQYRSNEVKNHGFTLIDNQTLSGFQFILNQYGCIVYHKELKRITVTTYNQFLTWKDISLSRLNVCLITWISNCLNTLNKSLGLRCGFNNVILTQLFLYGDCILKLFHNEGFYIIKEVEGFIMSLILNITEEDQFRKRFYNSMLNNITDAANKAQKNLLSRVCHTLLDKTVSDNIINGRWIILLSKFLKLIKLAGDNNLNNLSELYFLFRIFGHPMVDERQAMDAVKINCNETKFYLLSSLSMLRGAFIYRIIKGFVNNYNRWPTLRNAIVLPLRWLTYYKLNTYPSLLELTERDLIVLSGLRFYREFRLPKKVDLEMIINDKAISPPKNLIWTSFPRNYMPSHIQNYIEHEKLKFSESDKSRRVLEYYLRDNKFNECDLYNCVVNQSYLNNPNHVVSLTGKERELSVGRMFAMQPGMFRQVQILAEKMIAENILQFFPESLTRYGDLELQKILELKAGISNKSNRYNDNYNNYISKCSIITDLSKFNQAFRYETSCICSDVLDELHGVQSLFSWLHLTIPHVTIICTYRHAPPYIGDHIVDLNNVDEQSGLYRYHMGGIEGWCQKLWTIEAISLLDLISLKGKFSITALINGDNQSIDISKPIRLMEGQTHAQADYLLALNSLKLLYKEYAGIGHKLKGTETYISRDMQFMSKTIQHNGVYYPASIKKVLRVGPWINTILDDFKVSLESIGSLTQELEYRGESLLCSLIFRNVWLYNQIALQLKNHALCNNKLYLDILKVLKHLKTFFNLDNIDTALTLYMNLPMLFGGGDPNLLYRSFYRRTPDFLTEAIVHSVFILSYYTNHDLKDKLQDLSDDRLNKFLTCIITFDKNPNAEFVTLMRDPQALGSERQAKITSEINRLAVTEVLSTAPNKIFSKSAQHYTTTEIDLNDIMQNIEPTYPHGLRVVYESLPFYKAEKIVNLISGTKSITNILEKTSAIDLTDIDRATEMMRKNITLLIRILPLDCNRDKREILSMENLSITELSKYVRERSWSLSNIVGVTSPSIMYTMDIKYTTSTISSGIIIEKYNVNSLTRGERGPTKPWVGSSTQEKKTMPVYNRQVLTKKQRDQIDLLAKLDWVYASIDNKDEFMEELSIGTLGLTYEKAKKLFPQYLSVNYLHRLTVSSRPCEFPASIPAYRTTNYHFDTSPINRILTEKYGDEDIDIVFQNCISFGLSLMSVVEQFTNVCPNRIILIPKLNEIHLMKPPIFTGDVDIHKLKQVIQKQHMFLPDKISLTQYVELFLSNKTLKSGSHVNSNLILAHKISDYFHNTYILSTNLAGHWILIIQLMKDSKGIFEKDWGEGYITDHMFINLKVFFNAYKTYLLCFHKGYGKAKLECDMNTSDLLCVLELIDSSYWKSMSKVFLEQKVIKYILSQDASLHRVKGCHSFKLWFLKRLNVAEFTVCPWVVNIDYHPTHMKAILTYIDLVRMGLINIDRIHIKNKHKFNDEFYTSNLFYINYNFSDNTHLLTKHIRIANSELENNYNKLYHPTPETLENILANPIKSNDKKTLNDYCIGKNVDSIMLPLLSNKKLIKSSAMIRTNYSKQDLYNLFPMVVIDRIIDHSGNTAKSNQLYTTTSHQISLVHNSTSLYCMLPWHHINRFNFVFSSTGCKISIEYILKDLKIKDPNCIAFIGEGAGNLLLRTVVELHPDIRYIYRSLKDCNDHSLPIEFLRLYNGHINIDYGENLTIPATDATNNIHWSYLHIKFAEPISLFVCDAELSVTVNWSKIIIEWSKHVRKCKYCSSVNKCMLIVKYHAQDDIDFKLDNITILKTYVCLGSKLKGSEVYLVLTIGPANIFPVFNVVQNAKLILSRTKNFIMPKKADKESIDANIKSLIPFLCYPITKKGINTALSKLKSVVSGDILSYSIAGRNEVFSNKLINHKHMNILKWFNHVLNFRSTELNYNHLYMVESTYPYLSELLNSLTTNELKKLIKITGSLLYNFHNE

SMILES: COc1cc(C(=O)NC[C@](O)(c2cc(C(C)(C)O)c(F)c(-c3ccc(F)cc3)n2)C(F)(F)F)cc2cc(C)nnc12 [JNJ-8003]
- EC50 [1]: 0.00015 µM
- ΔTm at 25 µM (RSV L+P complex [2]): 6 °C
- MTase activity, RNA+compound+RSV MTase-CTD, CPM (RSV MTase-CTD protein; 50 uM): 32508 CPM and 30594 CPM and 30169 CPM
- MTase activity, RNA+compound+RSV MTase-CTD, CPM (RSV MTase-CTD protein; 200 uM): 26082 CPM and 22767 CPM and 27924 CPM
- impact on MTase activity (in words) (RSV MTase-CTD protein; recombinant MTase-CTD fragment): no impact
- antigenome RNA and mRNA (in words) [3]: dose dependent reduction
- inhibition (in words) [4]: negligible inhibition
- EC50 ([4]; Vesicular stomatitis virus, A549, read-out: Median EC50): > 25 µM
- inhibition (in words) [5]: negligible inhibition
- IC50 (Human RNA polymerase II): > 100 µM
- CC50 at 3 days (in vitro): 27 µM
- MTase activity, RNA+compound+RSV L+P, CPM (RSV L+P complex [6]; 50 uM): 23422 CPM and 23466 CPM and 23927 CPM
- MTase activity, RNA+compound+RSV L+P, CPM (RSV L+P complex [6]; 200 uM): 14871 CPM and 15721 CPM and 15503 CPM
- impact on MTase activity (in words) (RSV L+P complex [6]; full-length RSV L+P): no impact
- CC50 at 3 days [7]: 11 µM
- EC50 [8]: 0.00018 µM
- inhibition (in words) [9]: negligible inhibition
